Our source for the IC50 values is ChEMBL document CHEMBL1126815, “Synthesis and squalene synthetase inhibitory activity of tripotassium 1-methyl-1-[(N-benzyl-N-farnesyl)aminoethylphosphinato]ethylphosphonate as a tethered analog of N-benzyl-N-farnesylamine-inorganic pyrophosphate ion pair” (Bioorg Med Chem Lett, 1993).

Each structure is given as a SMILES string.

The target in this assay is T1, Squalene synthase (Rattus norvegicus, UniProt Q02769).
T1 sequence (Q02769 whole entry): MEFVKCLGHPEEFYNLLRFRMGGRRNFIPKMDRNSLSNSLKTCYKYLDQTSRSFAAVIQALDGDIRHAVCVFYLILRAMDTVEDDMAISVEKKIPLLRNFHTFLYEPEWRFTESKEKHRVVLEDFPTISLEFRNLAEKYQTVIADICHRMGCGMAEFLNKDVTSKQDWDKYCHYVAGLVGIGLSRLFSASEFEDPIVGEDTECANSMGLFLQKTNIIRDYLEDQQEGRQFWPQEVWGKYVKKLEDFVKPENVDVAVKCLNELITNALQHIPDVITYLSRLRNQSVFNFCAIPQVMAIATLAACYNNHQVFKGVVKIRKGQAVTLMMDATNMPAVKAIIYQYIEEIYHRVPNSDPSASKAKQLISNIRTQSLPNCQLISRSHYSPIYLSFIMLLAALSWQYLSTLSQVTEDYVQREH
Put plainly: Tested for the squalene synthetase inhibitory activity in rat liver microsomal assay. The class given is microsomes.

`CC(C)=CCC/C(C)=C/CC/C(C)=C/CNCc1ccccc1.O=P(O)(O)OP(=O)(O)O` had an IC50 of 10 nM.
In the case of `CC(C)=CCC/C(C)=C/CC/C(C)=C/CN(CCP(=O)(O)C(C)(C)P(=O)(O)O)Cc1ccccc1` it was 20 nM.
